In patent US10874743B2, “IRAK degraders and uses thereof” (Kymera Therapeutics, Inc., priority 2017, dated 2020):

Columns and labels:
Type in all cases: cell-based
[1] = target: T1, IRAK4 (Homo sapiens, UniProt Q9NWZ3); experiment: OCI-LY-10 degradation assay (western blot, % IRAK4 degraded after 4 hours); set-up: endogenous in cells; host or cells: OCI-LY10; conditions: OCI-LY10 cells, 4 hours; for OCI-LY10 % IRAK4 Degradation (0.01 uM): 0.01 uM compound; for OCI-LY10 % IRAK4 Degradation (0.1 uM): 0.1 uM compound; for OCI-LY10 % IRAK4 Degradation (1 uM): 1 uM compound
T1 sequence (Q9NWZ3 1-460): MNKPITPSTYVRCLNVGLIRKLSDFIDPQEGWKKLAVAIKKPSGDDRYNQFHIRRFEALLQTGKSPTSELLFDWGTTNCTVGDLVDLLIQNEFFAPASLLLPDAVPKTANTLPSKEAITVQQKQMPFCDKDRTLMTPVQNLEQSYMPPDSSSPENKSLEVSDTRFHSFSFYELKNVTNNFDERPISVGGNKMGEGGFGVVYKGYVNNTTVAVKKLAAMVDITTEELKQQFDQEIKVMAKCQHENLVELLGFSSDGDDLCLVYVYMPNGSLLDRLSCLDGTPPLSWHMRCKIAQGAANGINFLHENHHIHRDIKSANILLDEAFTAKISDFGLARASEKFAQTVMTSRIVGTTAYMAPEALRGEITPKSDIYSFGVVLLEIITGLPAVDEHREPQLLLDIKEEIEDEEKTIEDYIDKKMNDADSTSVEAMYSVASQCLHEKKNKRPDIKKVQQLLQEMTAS
In short: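 IRAK4 loss after 4 h at 37° C was scored A (>50%), B (>20-50%) or C (<20%) from infrared western blots of RIPA lysates, 20-25 μg protein per lane. Compound was applied at 0.003-10 μM final to OCI-LY10 cells cultured in RPMI-1640 with 20% FBS and 55 μM 2-ME.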

[2] = target: T1, IRAK4; experiment: OCI-LY-10 MSD assay for IRAK4 DC50; set-up: endogenous in cells; host or cells: OCI-LY10; conditions: OCI-LY10 cells, 4 hr incubation, concentration required to degrade 50% of protein
In short: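 IRAK4 level was quantified by MSD electrochemiluminescence (anti-IRAK4 capture antibody, rabbit anti-IRAK4 detection antibody) in RIPA lysates of OCI-Ly10 cells. Cells had been treated with compound for 4 hr (8-point, 3-fold serial dilution). Remaining protein versus concentration was fitted to a sigmoidal curve to give DC50.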

[3] = test system: OCI-LY10 cells; experiment: OCI-LY-10 CTG cell viability assay (EC50); conditions: Homo sapiens, 96 h, CellTiter-Glo cell viability, 4 days incubation, top concentration 10 μM, read-out: OCI-LY10 IRAK4 EC50
Experimental: A CTG cell viability assay using OCI-LY-10 cells was run to determine compound-mediated cell viability (EC50).
Compound-mediated viability effect on OCI-LY10 was quantitatively determined using the CellTiter-Glo® Luminescent Cell Viability Assay kit from Promega (Catalog number G7570) following manufacturer's recommended procedures. […] Compounds were then added to the assay plate with final top concentration of 10 μM and 1:3 dilution series with total of 9 doses. The final DMSO concentration was normalized to 0.2%. The assay plates were incubated at 37° C. for 4 days under 5% CO2. Then the assay plate was equilibrated at room temperature for 10 minutes. […] The data was then analyzed by software Prism 7.0 from GraphPad and the dose response curves were fit using a three-parameter logistic equation to calculate EC50.

OCI-LY10 % IRAK4 Degradation (0.01 uM) [1]	OCI-LY10 % IRAK4 Degradation (0.1 uM) [1]	OCI-LY10 % IRAK4 Degradation (1 uM) [1]	DC50 [2]	EC50 [3]	Compound
C (<20% degradation)	C (<20% degradation)	B (>20-50% degradation)	> 1000 nM		O=C1CCC(N2C(=O)c3cccc(NCCOCCN4CC5(CN(CCOCCNCc6ccc(-n7cc(NC(=O)c8coc(-c9ccnc(NCC%10CC%10)c9)n8)c(C(F)F)n7)cc6)C5)C4)c3C2=O)C(=O)N1 (stereo not drawn) [I-350]
C (<20% degradation)	C (<20% degradation)	A (>50% degradation)	100 to 500 nM		O=C1CCC(N2C(=O)c3ccc(NCCOCCN4CC5(CN(CCOCCNCc6ccc(-n7cc(NC(=O)c8coc(-c9ccnc(NCC%10CC%10)c9)n8)c(C(F)F)n7)cc6)C5)C4)cc3C2=O)C(=O)N1 (stereo not drawn) [I-351]
C (<20% degradation)	C (<20% degradation)	C (<20% degradation)	> 1000 nM		Cn1cc(-c2nc(C(=O)Nc3cn(-c4ccc(CNCCOCCOCCNc5cccc6c5C(=O)N(C5CCC(=O)NC5=O)C6=O)cc4)nc3C(F)F)co2)cn1 (stereo not drawn) [I-352]
B (>20-50% degradation)	C (<20% degradation)	C (<20% degradation)	> 1000 nM		CN(CCCc1cccc2c1C(=O)N(C1CCC(=O)NC1=O)C2=O)Cc1ccc(-n2cc(NC(=O)c3coc(-c4ccnc(NCC(F)(F)F)c4)n3)c(C(F)F)n2)cc1 (stereo not drawn) [I-360]
C (<20% degradation)	C (<20% degradation)	C (<20% degradation)	> 1000 nM		O=C1CCC(N2C(=O)c3cccc(CCCNCc4ccc(-n5cc(NC(=O)c6coc(-c7ccncc7)n6)c(C(F)F)n5)cc4)c3C2=O)C(=O)N1 (stereo not drawn) [I-366]
C (<20% degradation)	C (<20% degradation)	B (>20-50% degradation)	> 1000 nM		O=C1CCC(N2C(=O)c3ccc(CCCNCc4ccc(-n5cc(NC(=O)c6coc(-c7ccnc(NCC8CC8)c7)n6)c(C(F)F)n5)cc4)cc3C2=O)C(=O)N1 (stereo not drawn) [I-371]
B (>20-50% degradation)	A (>50% degradation)	A (>50% degradation)	< 50 nM		O=C1CCC(N2C(=O)c3ccc(CCCOCCNCc4ccc(-n5cc(NC(=O)c6coc(-c7ccnc(NCC8CC8)c7)n6)c(C(F)F)n5)cc4)cc3C2=O)C(=O)N1 (stereo not drawn) [I-381]
C (<20% degradation)	B (>20-50% degradation)	A (>50% degradation)	100 to 500 nM		O=C1CCC(N2C(=O)c3cccc(NC4CCN(CCOCCOCCOCCNCc5ccc(-n6cc(NC(=O)c7coc(-c8ccnc(NCC9CC9)c8)n7)c(C(F)F)n6)cc5)CC4)c3C2=O)C(=O)N1 (stereo not drawn) [I-386]
C (<20% degradation)	C (<20% degradation)	B (>20-50% degradation)	> 1000 nM		O=C1CCC(N2Cc3cc(NC4CCN(CCOCCOCCNCc5ccc(-n6cc(NC(=O)c7coc(-c8ccnc(NCC9CC9)c8)n7)c(C(F)F)n6)cc5)CC4)ccc3C2=O)C(=O)N1 (stereo not drawn) [I-387]
C (<20% degradation)	C (<20% degradation)	A (>50% degradation)	500 to 1000 nM		O=C1CCC(N2C(=O)c3ccc(NC4CCN(CCOCCOCCOCCNCc5ccc(-n6cc(NC(=O)c7coc(-c8ccnc(NCC9CC9)c8)n7)c(C(F)F)n6)cc5)CC4)cc3C2=O)C(=O)N1 (stereo not drawn) [I-389]
B (>20-50% degradation)	A (>50% degradation)	A (>50% degradation)	50 to 100 nM		O=C1CCC(N2Cc3cc(N4CCN(CCOCCOCCNCc5ccc(-n6cc(NC(=O)c7coc(-c8ccnc(NCC9CC9)c8)n7)c(C(F)F)n6)cc5)CC4)ccc3C2=O)C(=O)N1 (stereo not drawn) [I-392]
C (<20% degradation)	A (>50% degradation)	A (>50% degradation)	100 to 500 nM		O=C1CCC(N2C(=O)c3ccc(N4CCN(CCOCCNCc5ccc(-n6cc(NC(=O)c7coc(-c8ccnc(NCC9CC9)c8)n7)c(C(F)F)n6)cc5)CC4)cc3C2=O)C(=O)N1 (stereo not drawn) [I-393]
C (<20% degradation)	A (>50% degradation)	A (>50% degradation)	100 to 500 nM		O=C1CCC(N2C(=O)c3ccc(N4CCN(CCOCCOCCOCCNCc5ccc(-n6cc(NC(=O)c7coc(-c8ccnc(NCC9CC9)c8)n7)c(C(F)F)n6)cc5)CC4)cc3C2=O)C(=O)N1 (stereo not drawn) [I-394]
C (<20% degradation)	B (>20-50% degradation)	B (>20-50% degradation)	> 1000 nM		NC(=O)c1nn(-c2ccc(CNCCOCCOCCN3CCC(Nc4cccc5c4C(=O)N(C4CCC(=O)NC4=O)C5=O)CC3)cc2)cc1NC(=O)c1coc(-c2ccnc(NCC3CC3)c2)n1 (stereo not drawn) [I-395]
B (>20-50% degradation)	A (>50% degradation)	A (>50% degradation)	< 50 nM		CN(CCNCCCc1ccc2c(c1)C(=O)N(C1CCC(=O)NC1=O)C2=O)C(=O)c1ccc(-n2cc(NC(=O)c3coc(-c4ccnc(NCC5CC5)c4)n3)c(C(N)=O)n2)cc1 (stereo not drawn) [I-397]
B (>20-50% degradation)	A (>50% degradation)	A (>50% degradation)	< 50 nM		NC(=O)c1nn(-c2ccc(C(=O)NCCOCCOCCNc3cccc4c3C(=O)N(C3CCC(=O)NC3=O)C4=O)cc2)cc1NC(=O)c1coc(-c2ccnc(N)c2)n1 (stereo not drawn) [I-427]
				100 to 500 nM	Cn1c(=O)n(C2CCC(=O)NC2=O)c2ccc(CCCOCCOCCNC(c3ccc(-n4cc(NC(=O)c5coc(-c6ccnc(NCC7CC7)c6)n5)c(C(N)=O)n4)cc3)C(F)(F)F)cc21 (stereo not drawn) [I-448]
				> 1000 nM	Cn1cc(NC(=O)c2coc(-c3ccnc(NCC(F)(F)F)c3)n2)c(C(=O)NCCOCCOCCOCCOCCCc2cccc3c2n(C)c(=O)n3C2CCC(=O)NC2=O)n1 (stereo not drawn) [I-455]
				> 1000 nM	Cn1cc(NC(=O)c2coc(-c3ccnc(NCC(F)(F)F)c3)n2)c(C(=O)NC2CCN(CCOCCOCCOCCOCCCc3cccc4c3n(C)c(=O)n4C3CCC(=O)NC3=O)CC2)n1 (stereo not drawn) [I-457]
				50 to 100 nM	O=C1CCC(N2Cc3cc(CNC(=O)NCCOCCOCCNC(=O)n4cc(NC(=O)c5coc(-c6ccnc(NCC7CC7)c6)n5)c(C(F)F)n4)ccc3C2=O)C(=O)N1 (stereo not drawn) [I-458]
				> 1000 nM	Cn1cc(NC(=O)c2coc(-c3ccnc(NCC(F)(F)F)c3)n2)c(C(=O)NCCOCCOCCOCCCc2cccc3c2n(C)c(=O)n3C2CCC(=O)NC2=O)n1 (stereo not drawn) [I-464]
				> 1000 nM	Cn1cc(NC(=O)c2cnn3ccc(N4CCN(C(=O)COCCOCCOCCOCCCc5cccc6c5n(C)c(=O)n6C5CCC(=O)NC5=O)CC4)nc23)c(C(F)F)n1 (stereo not drawn) [I-465]
				> 1000 nM	Cn1cc(NC(=O)c2cnn3ccc(N4CCN(C(=O)COCCOCCOCCOCCCc5ccc6c(c5)n(C)c(=O)n6C5CCC(=O)NC5=O)CC4)nc23)c(C(F)F)n1 (stereo not drawn) [I-466]
				> 1000 nM	Cn1cc(NC(=O)c2cnn3ccc(N4CCN(C(=O)COCCOCCOCCOCCNc5cccc6c5C(=O)N(C5CCC(=O)NC5=O)C6=O)CC4)nc23)c(C(F)F)n1 (stereo not drawn) [I-467]
				> 1000 nM	Cn1cc(NC(=O)c2cnn3ccc(N4CCN(C(=O)COCCOCCOCCNc5cccc6c5C(=O)N(C5CCC(=O)NC5=O)C6=O)CC4)nc23)c(C(F)F)n1 (stereo not drawn) [I-468]
				> 1000 nM	Cn1cc(NC(=O)c2cnn3ccc(N4CCN(C(=O)COCCOCCCc5ccc6c(c5)n(C)c(=O)n6C5CCC(=O)NC5=O)CC4)nc23)c(C(F)F)n1 (stereo not drawn) [I-469]
				> 1000 nM	Cn1cc(NC(=O)c2cnn3ccc(N4CCNCC4)nc23)c(C(=O)NCCOCCOCCOCCNc2cccc3c2C(=O)N(C2CCC(=O)NC2=O)C3=O)n1 (stereo not drawn) [I-471]
